Holding throughout (assay type): cell-based
The subject of test [1] is LNCaP. The experiment in a line: Cell growth inhibition assay, prostate cancer cell line LNCaP (medium with 10 ng/mL IL-6). The following applies: Homo sapiens, medium supplemented with 10 ng/mL of IL-6, 10,000 cells/well.
In test [2] the test system is AGS. Description: Cell growth inhibition assay, stomach cancer cell line AGS. The conditions noted are these: Homo sapiens; AGS stomach cancer cell line, 3,000 cells/well.
Test [3] concerns MDA-MB-231. Description: Cell growth inhibition assay, breast cancer cell line MDA-MB-231. The following applies: Homo sapiens; MDA-MB-231 breast cancer cell line, 5,000 cells/well.
Test [4] has as its target T1, STAT3 (Homo sapiens, UniProt P40763).
T1 construct: plasmid pSTAT3-TA-luc), which contains a stably operating STAT3 promoter; endogenous in cells
The experiment in a line: STAT3 reporter gene assay (luciferase), LNCaP stable cell line (pSTAT3-TA-luc), IL-6 stimulation. The procedure, abridged:
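LNCaP cells stably carrying pSTAT3-TA-luc, in RPMI1640 with 3% DCC-FBS, were treated with compound and then stimulated with 10 ng/mL IL-6 for 24–48 h at 37 °C. Luciferase activity was measured in lysates. A parallel plate measured viability by CellTiter-Glo, with stimulated 0.1% DMSO wells as the positive control.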
For orientation: A reporter such as luciferase makes a cellular process visible.

Structures are written as SMILES.

T1 sequence (P40763 whole entry): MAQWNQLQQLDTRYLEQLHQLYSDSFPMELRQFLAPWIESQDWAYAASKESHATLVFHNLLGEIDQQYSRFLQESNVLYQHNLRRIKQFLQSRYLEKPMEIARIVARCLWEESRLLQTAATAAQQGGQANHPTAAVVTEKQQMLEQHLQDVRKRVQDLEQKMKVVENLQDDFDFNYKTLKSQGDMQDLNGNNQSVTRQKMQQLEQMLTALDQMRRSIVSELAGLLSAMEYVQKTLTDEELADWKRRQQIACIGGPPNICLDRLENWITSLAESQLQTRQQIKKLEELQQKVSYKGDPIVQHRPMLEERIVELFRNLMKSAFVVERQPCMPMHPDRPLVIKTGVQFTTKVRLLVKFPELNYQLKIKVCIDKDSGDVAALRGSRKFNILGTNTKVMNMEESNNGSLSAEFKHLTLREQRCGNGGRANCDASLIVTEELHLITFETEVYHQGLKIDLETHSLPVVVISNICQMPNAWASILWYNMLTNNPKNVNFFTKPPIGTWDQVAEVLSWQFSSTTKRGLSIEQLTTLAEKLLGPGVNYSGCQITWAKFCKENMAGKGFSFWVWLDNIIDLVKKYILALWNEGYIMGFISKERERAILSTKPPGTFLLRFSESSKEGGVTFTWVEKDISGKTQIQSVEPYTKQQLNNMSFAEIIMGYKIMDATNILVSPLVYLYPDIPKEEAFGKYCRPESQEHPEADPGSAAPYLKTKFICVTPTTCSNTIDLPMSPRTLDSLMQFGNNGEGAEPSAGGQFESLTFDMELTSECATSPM

In general, IC50 refers to the concentration that gives 50% inhibition. A low value points to greater potency in that assay. For the compound `CS(=O)(=O)Nc1ccc2cc(C(=O)Nc3cccc(-c4ccccc4C(F)(F)F)c3)[nH]c2c1` [Example 260, 6-(methylsulfonamido)-N-(2′-(trifluoromethyl)-[1,1′-biphenyl]-3-yl)-1H-indole-2-carboxamide], the IC50 in test [1] worked out at 4.1 µM; in test [2] it was 2.7 µM; in test [3], 0.92 µM; in test [4], 0.71 µM.
The like results for `CS(=O)(=O)Nc1ccc2c(C(=O)Nc3cccc(-c4ccc(F)cc4F)c3)c[nH]c2c1` [Example 275, N-(2′,4′-difluoro-[1,1′-biphenyl]-3-yl)-6-(methylsulfonamido)-1H-indole-3-carboxamide] were, in that order, 9 µM, 5.7 µM, more than 10 µM and 3.3 µM.
Regarding `CS(=O)(=O)Nc1ccc2cc(C(=O)Nc3cccc(-c4cccnc4C(F)(F)F)c3)[nH]c2c1` [Example 293, 6-(methylsulfonamido)-N-(3-(2-(trifluoromethyl)pyridin-3-yl)phenyl)-1H-indole-2-carboxamide], the IC50 in test [1] turned out to be 4.6 µM; in test [2] it was 24.6 µM; in test [3], 1 µM; in test [4], 2.7 µM.
Consider `CS(=O)(=O)Nc1ccc2cc(C(=O)Nc3cc(C#N)cc(-c4ccc(F)cc4F)c3)[nH]c2c1` [Example 301, N-(5-cyano-2′,4′-difluoro-[1,1′-biphenyl]-3-yl)-6-(methylsulfonamido)-1H-indole-2-carboxamide], for which the IC50 in test [1] worked out at 3.9 µM; in test [2], 5.7 µM; in test [3], 0.72 µM; in test [4], 3.3 µM.
For `CN(c1ccc2cc(C(=O)Nc3cc(Br)cc(-c4ccc(F)cc4F)c3)n(C)c2c1)S(C)(=O)=O` [Example 341, N-(5-bromo-2′,4′-difluoro-[1,1′-biphenyl]-3-yl)-1-methyl-6-(N-methylmethylsulfonamido)-1H-indole-2-carboxamide], the IC50 in test [1] turned out to be 6.2 µM; in test [2], 5.3 µM; in test [3], 7.5 µM; in test [4] it was 3.3 µM.
For `CN(c1ccc2cc(C(=O)Nc3cc(Br)cc(-c4ccc(F)cc4F)c3)[nH]c2c1)S(C)(=O)=O` [Example 342, N-(5-bromo-2′,4′-difluoro-[1,1′-biphenyl]-3-yl)-6-(N-methylmethylsulfonamido)-1H-indole-2-carboxamide], in that order: 5 µM, 9.6 µM, 0.52 µM and 0.39 µM.
As for `COc1cc(NC(=O)c2cc3ccc(N(C)S(C)(=O)=O)cc3[nH]2)cc(-c2ccc(F)cc2F)c1` [Example 347, N-(2′,4′-difluoro-5-methoxy-[1,1′-biphenyl]-3-yl)-6-(N-methylmethylsulfonamido)-1H-indole-2-carboxamide], the 50% inhibitory concentration (IC50) in test [1] was 7.9 µM; in test [2], 19.7 µM; in test [3], 0.61 µM; in test [4], 1.5 µM.
The like results for `COc1cc(NC(=O)c2cc3ccc(N(C)S(C)(=O)=O)cc3n2C)cc(-c2ccc(F)cc2F)c1` [Example 348, N-(2′,4′-difluoro-5-methoxy-[1,1′-biphenyl]-3-yl)-1-methyl-6-(N-methylmethylsulfonamido)-1H-indole-2-carboxamide] were, in that order, 7.2 µM, 4.8 µM, more than 10 µM and more than 10 µM.
For `CS(=O)(=O)Nc1ccc2cc(C(=O)Nc3cc(OCC(F)F)cc(-c4ccc(F)cc4F)c3)[nH]c2c1` [Example 366, N-(5-(2,2-difluoroethoxy)-2′,4′-difluoro-[1,1′-biphenyl]-3-yl)-6-(methylsulfonamido)-1H-indole-2-carboxamide], in that order: 6.2 µM, 8.9 µM, 0.58 µM and 1.2 µM.
The like results for `CC(C)COc1cc(NC(=O)c2cc3ccc(NS(C)(=O)=O)cc3[nH]2)cc(-c2ccc(F)cc2F)c1` [Example 367, N-(2′,4′-difluoro-5-isobutoxy-[1,1′-biphenyl]-3-yl)-6-(methylsulfonamido)-1H-indole-2-carboxamide] were, in that order, 7.4 µM, 9.5 µM, 1.1 µM and 0.38 µM.
On to `CS(=O)(=O)Nc1ccc2cc(C(=O)Nc3cc(OCC#N)cc(-c4ccc(F)cc4F)c3)[nH]c2c1` [Example 368, N-(5-(cyanomethoxy)-2′,4′-difluoro-[1,1′-biphenyl]-3-yl)-6-(methylsulfonamido)-1H-indole-2-carboxamide], for which the IC50 in test [1] is 9.8 µM; in test [2], 11.5 µM; in test [3] it was 1.7 µM; in test [4], 2.7 µM.
Consider `CS(=O)(=O)Nc1ccc2cc(C(=O)Nc3cccc(C(F)(F)c4cccc(C#N)c4)c3)[nH]c2c1` [Example 390, N-(3-((3-cyanophenyl)difluoromethyl)phenyl)-6-(methylsulfonamido)-1H-indole-2-carboxamide], for which the IC50 in test [1] turned out to be 2.5 µM; in test [2], 9.6 µM; in test [3] it was 1.1 µM; in test [4] it was 3.7 µM.
Regarding `CS(=O)(=O)Nc1ccc2cc(C(=O)Nc3cccc(S(=O)(=O)c4ccccn4)c3)[nH]c2c1` [Example 403, 6-(methylsulfonamido)-N-(3-(pyridin-2-ylsulfonyl)phenyl)-1H-indole-2-carboxamide], the values for the half-inhibitory concentration (IC50) in test [1], in test [2] and in test [4] were more than 10 µM, 34.4 µM and 8.2 µM, respectively.
The like results for `CS(=O)(=O)Nc1ccc2cc(C(=O)Nc3cccc(S(=O)(=O)c4cccnc4)c3)[nH]c2c1` [Example 404, 6-(methylsulfonamido)-N-(3-(pyridin-3-ylsulfonyl)phenyl)-1H-indole-2-carboxamide] were, in that order, more than 10 µM, 30.3 µM and more than 10 µM.
For `CS(=O)(=O)Nc1ccc2cc(C(=O)Nc3cccc(S(=O)(=O)c4cccc(Cl)c4)c3)[nH]c2c1` [Example 405, N-(3-((3-chlorophenyl)sulfonyl)phenyl)-6-(methylsulfonamido)-1H-indole-2-carboxamide], in that order: 8.6 µM, 14.6 µM and 2.4 µM.
The like results for `CS(=O)(=O)Nc1ccc2cc(C(=O)Nc3cccc(S(=O)(=O)c4cccc(C#N)n4)c3)[nH]c2c1` [Example 406, N-(3-((6-cyanopyridin-2-yl)sulfonyl)phenyl)-6-(methylsulfonamido)-1H-indole-2-carboxamide] were, in that order, more than 10 µM, 17.6 µM and more than 10 µM.
For `COc1cncc(S(=O)(=O)c2cccc(NC(=O)c3cc4ccc(NS(C)(=O)=O)cc4[nH]3)c2)c1` [Example 407, N-(3-((5-methoxypyridin-3-yl)sulfonyl)phenyl)-6-(methylsulfonamido)-1H-indole-2-carboxamide], the results for the IC50 in test [1], in test [2] and in test [4] were more than 10 µM, 45.5 µM and 5.7 µM, respectively.
Regarding `COc1cccc(S(=O)(=O)c2cccc(NC(=O)c3cc4ccc(NS(C)(=O)=O)cc4[nH]3)c2)n1` [Example 408, N-(3-((6-methoxypyridin-2-yl)sulfonyl)phenyl)-6-(methylsulfonamido)-1H-indole-2-carboxamide], the IC50 in test [1] was more than 10 µM; in test [2] it was 24.2 µM; in test [4], 2.4 µM.
For the compound `CS(=O)(=O)Nc1ccc2cc(C(=O)Nc3cccc(S(=O)(=O)c4ccc5sccc5c4)c3)[nH]c2c1` [Example 409, N-(3-(benzo[b]thiophen-5-ylsulfonyl)phenyl)-6-(methylsulfonamido)-1H-indole-2-carboxamide], the values for the concentration for half-maximal inhibition (IC50) in test [1], in test [2] and in test [4] were more than 10 µM, 17.3 µM and 2.9 µM, respectively.
In the case of `Cc1nc2ccc(S(=O)(=O)c3cccc(NC(=O)c4cc5ccc(NS(C)(=O)=O)cc5[nH]4)c3)cc2s1` [Example 410, N-(3-((2-methylbenzo[d]thiazol-6-yl)sulfonyl)phenyl)-6-(methylsulfonamido)-1H-indole-2-carboxamide], the results for the IC50 in test [1], in test [2] and in test [4] were more than 10 µM, 31.3 µM and 3.1 µM, respectively.
As to `COc1cc(C#N)cc(S(=O)(=O)c2cccc(NC(=O)c3cc4ccc(NS(C)(=O)=O)cc4[nH]3)c2)c1` [Example 411, N-(3-((3-cyano-5-methoxyphenyl)sulfonyl)phenyl)-6-(methylsulfonamido)-1H-indole-2-carboxamide], the 50% inhibitory concentration (IC50) in test [1] was more than 10 µM; in test [2] it was 35.2 µM; in test [4] it was 3.6 µM.
As for `CS(=O)(=O)Nc1ccc2cc(C(=O)Nc3cccc(S(=O)(=O)c4cccc(CC#N)c4)c3)[nH]c2c1` [Example 412, N-(3-((3-(cyanomethyl)phenyl)sulfonyl)phenyl)-6-(methylsulfonamido)-1H-indole-2-carboxamide], the IC50 in test [1] is more than 10 µM; in test [2], 22 µM; in test [4], 3.4 µM.
As for `CS(=O)(=O)Nc1ccc2cc(C(=O)Nc3cccc(S(=O)(=O)c4ccc5c(=O)ccoc5c4)c3)[nH]c2c1` [Example 413, 6-(methylsulfonamido)-N-(3-((4-oxo-4H-chromen-7-yl)sulfonyl)phenyl)-1H-indole-2-carboxamide], the IC50 in test [1] was more than 10 µM; in test [2], more than 50 µM; in test [4], more than 10 µM.
For `CS(=O)(=O)Nc1ccc2cc(C(=O)Nc3cccc(S(=O)(=O)c4cccc(Br)c4)c3)[nH]c2c1` [Example 414, N-(3-((3-bromophenyl)sulfonyl)phenyl)-6-(methylsulfonamido)-1H-indole-2-carboxamide], the IC50 turned out to be 9.6 µM in test [1], 14.4 µM in test [2] and 1.7 µM in test [4].
